Laboratory results from patent US9732075B2, “Benzimidazole-proline derivatives” (IDORSIA PHARMACEUTICALS LTD, priority 2012, dated 2017).

Tests used:
human orexin-1 receptor = human orexin-1 receptor (Homo sapiens (Human), UniProt O43613); experiment: In vitro assay: intracellular calcium measurements (FLIPR), antagonistic activity; assay type: cell-based; details: CHO cells expressing human orexin-1 receptor, orexin-A agonist, geometric mean, read-out: IC50 Ox1
How it was run: (§1)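 Read-out: FLIPR fluo-4 calcium peak height in CHO cells bearing human orexin-1 or orexin-2 receptor, relative to orexin-A (approx. EC70) with vehicle. Antagonist preincubation 120 min; agonist orexin-A at 3 nM final. IC50 possibly normalized to an on-plate reference compound.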

human orexin-2 receptor = human orexin-2 receptor (Homo sapiens (Human), UniProt O43614); experiment: as above; assay type: cell-based; details: CHO cells expressing human orexin-2 receptor, orexin-A agonist, geometric mean, read-out: IC50 Ox2
Sequence of human orexin-2 receptor (O43614 whole entry): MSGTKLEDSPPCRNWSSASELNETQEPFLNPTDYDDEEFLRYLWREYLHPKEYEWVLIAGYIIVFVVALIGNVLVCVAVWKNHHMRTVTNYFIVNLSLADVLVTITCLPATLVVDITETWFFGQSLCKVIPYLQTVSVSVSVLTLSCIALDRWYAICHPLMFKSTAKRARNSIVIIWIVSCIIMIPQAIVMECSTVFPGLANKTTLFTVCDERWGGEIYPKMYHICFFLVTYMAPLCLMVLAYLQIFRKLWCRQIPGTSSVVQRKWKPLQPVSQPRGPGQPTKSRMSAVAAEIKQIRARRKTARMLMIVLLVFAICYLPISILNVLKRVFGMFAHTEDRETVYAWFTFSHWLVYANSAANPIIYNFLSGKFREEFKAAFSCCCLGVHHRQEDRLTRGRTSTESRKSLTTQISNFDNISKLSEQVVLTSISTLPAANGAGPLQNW
How it was run: as §1

Sequence of human orexin-1 receptor (O43613 whole entry): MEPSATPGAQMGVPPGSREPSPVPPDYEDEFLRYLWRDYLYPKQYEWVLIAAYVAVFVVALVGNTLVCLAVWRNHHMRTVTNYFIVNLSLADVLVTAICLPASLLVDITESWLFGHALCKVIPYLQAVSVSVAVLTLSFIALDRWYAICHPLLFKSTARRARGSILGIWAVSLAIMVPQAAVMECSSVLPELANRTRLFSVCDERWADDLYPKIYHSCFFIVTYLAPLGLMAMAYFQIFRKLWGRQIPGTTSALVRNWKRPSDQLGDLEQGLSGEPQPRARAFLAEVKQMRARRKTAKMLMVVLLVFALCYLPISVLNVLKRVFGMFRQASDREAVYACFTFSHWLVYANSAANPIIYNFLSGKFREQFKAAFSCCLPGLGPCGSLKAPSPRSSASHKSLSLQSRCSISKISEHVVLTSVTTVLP

Row | SMILES | IC50 (human orexin-1 receptor) | IC50 (human orexin-2 receptor)
1 | Cc1nc(C(=O)N2CC[C@H](C)[C@H]2c2nc3c(C(C)C)cccc3[nH]2)c(-c2cccc(Cl)c2)s1 [Ex. 4.25] | 4 nM | 441 nM
2 | Cc1ccc(-c2ccc(F)cc2)c(C(=O)N2CCC[C@@]2(C)c2nc3cc(C)c(C)cc3n2C)c1 [Ex. 7.15] | 11 nM | 65 nM
3 | CO[C@@H]1C[C@@H](c2nc3ccc(Cl)c(C)c3[nH]2)N(C(=O)c2nc(N(C)C)sc2-c2ccc(C)c(C)c2)C1 [Ex. 3.33] | 0.8 nM | 10 nM
4 | COCCn1c([C@]2(C)CCCN2C(=O)c2cc(C)ccc2-c2ccccc2F)nc2cc(C)c(C)cc21 [Ex. 7.54] | 87 nM | 270 nM
5 | Cc1nc(C(=O)N2CCCC2c2nc3c(Br)cccc3[nH]2)c(-c2cccc(Cl)c2)s1 (stereo not drawn) [Ex. 1.106] | 17 nM | 31 nM
6 | Cc1nc(C(=O)N2CCCC2c2nc3cc(Cl)c(Cl)cc3[nH]2)c(-c2cccc(Cl)c2)s1 (stereo not drawn) [Ex. 1.92] | 23 nM | 69 nM
7 | Cc1nc(C(=O)N2CC[C@H](C)[C@H]2c2nc3cc(F)ccc3[nH]2)c(-c2cccc(Cl)c2)s1 [Ex. 4.20] | 28 nM | 2450 nM
8 | Cc1nc(C(=O)N2CC[C@H](C)[C@H]2c2nc3c(C(F)(F)F)cccc3[nH]2)c(-c2ccc(Br)cc2)s1 [Ex. 4.151] | 5 nM | 185 nM
9 | Cc1ccc(-n2nccn2)c(C(=O)N2CCC[C@@]2(C)c2nc3c(Br)cccc3[nH]2)c1 [Ex. 5.18] | 23 nM | 84 nM
10 | CO[C@H]1CN(C(=O)c2cc(C)ccc2-n2nccn2)C(C)(c2nc3c(C)cccc3[nH]2)C1 (stereo partly drawn) [Ex. 3.26] | 50 nM | 66 nM
11 | Cc1cc(C)c2nc([C@@H]3[C@@H](C)CCN3C(=O)c3nc(C)sc3-c3cccc(Cl)c3)[nH]c2c1 [Ex. 4.16] | 1 nM | 250 nM
12 | Cc1ccc(-n2nccn2)c(C(=O)N2CCC[C@@]2(C)c2nc3c(C)cc(C)cc3[nH]2)c1 [Ex. 5.16] | 16 nM | 18 nM
13 | Cc1cc2[nH]c([C@@H]3[C@@H](C)CCN3C(=O)c3cc(Cl)ccc3-c3ccccc3)nc2cc1Cl [Ex. 4.103] | 4 nM | 178 nM
14 | Cc1c(Cl)ccc2[nH]c([C@@H]3[C@@H](C)CCN3C(=O)c3cc(C(F)(F)F)ccc3-c3ccccc3)nc12 [Ex. 4.170] | 11 nM | 1430 nM

Continued, values first:

Row | IC50 (human orexin-1 receptor) | IC50 (human orexin-2 receptor) | SMILES
15 | 83 nM | 5 nM | C=C1C[C@@H](c2nc3ccc(Cl)c(C)c3[nH]2)N(C(=O)c2nc(C)ccc2-n2cccn2)C1 [Ex. 6.135]
16 | 22 nM | 35 nM | Cc1ccc(-c2cccc(F)c2)c(C(=O)N2CCC[C@@]2(C)c2nc3cc(C(F)(F)F)c(Cl)cc3[nH]2)c1 [Ex. 5.153]
17 | 4 nM | 11 nM | C=C1CC(c2nc3c(C)c(Cl)ccc3[nH]2)N(C(=O)c2cc(C)sc2-c2ccc(C)c(C)c2)C1 (stereo not drawn) [Ex. 6.74]
18 | 108 nM | 42 nM | C=C1CC(c2nc3cc4ccccc4cc3[nH]2)N(C(=O)c2cc(C)sc2-c2ccc(C)c(C)c2)C1 (stereo not drawn) [Ex. 6.85]
19 | 37 nM | 49 nM | COc1ccc(-c2ccc(C)cc2C(=O)N2CCC[C@@]2(C)c2nc3cc(C(F)(F)F)c(Cl)cc3[nH]2)cc1 [Ex. 5.150]
20 | 7 nM | 86 nM | Cc1ccc(-n2nccn2)c(C(=O)N2CCC[C@@]2(C)c2nc3cc(C(F)(F)F)c(F)cc3[nH]2)c1 [Ex. 5.22]
21 | 13 nM | 19 nM | C=C1CC(c2nc3cc(Cl)c(C)cc3[nH]2)N(C(=O)c2cc(C)sc2-c2ccc(C)c(C)c2)C1 (racemic) [Ex. 6.80]
22 | 97 nM | 15 nM | CSc1cccc2nc([C@@H]3CCCN3C(=O)c3cc(C#N)ccc3-n3nccn3)[nH]c12 [Ex. 1.167]
23 | 239 nM | 103 nM | C=C1C[C@@H](c2nc3cc(Cl)c(C(F)(F)F)cc3[nH]2)N(C(=O)c2cc(OC(F)(F)F)ccc2-n2nccn2)C1 [Ex. 6.185]
24 | 27 nM | 112 nM | C[C@@]1(c2nc3cc(C(F)(F)F)c(Cl)cc3[nH]2)CCCN1C(=O)c1cc(OC(F)(F)F)ccc1-n1nccn1 [Ex. 5.147]
